According to patent publication US6458840B2, “Use of valproic acid analog for the treatment and prevention of migraine and affective illness” (American Biogenetic Sciences, Inc., priority 1998, dated 2002):
In brackets after ≈: the same amount, converted by molar mass.

Assays:
[1] = Open field observation, behavioral rating of adverse effects; format: in vivo, rat; conditions: for antaxia (1-6) / hypolocomotion (1-3) / muscle relaxation (1-3): 13′ after application, mean (X)
Method: (§1) Tests included open field observations, rotarod test and body temperature. Tests were always performed in the same manner in control and drug experiments at two different times, just before application of drug or vehicle and 13 minutes after application.
(§2) In addition to these quantitative estimations of neurological deficit, behavioral alterations observed after administration of 2-propyl-4-hexynoic acid and valproate noted in the cage and by placing the animals in an open field of 90-100 cm diameter. Muscle tone was estimated by palpation of the abdomen. The extent of deficits in behavior after administration of the compounds was determined by a rating system (Loscher et al. 1987). In short, animals were taken out of the cage, placed in an open field, observed for about 1 minute and rated separately for ataxia, abducted hindlimbs, reduced righting, flat body posture, circling, Straub tail, piloerection, hypolocomotion and hyperlocomotion (abdominal muscle tone was evaluated by palpation at the end of the period of observation). All other parameters except ataxia were scored from 0 to 3: 0-absent; 1-equivocal; 2-present; 3- intense. For ataxia (06): 1 -slight ataxia in hind-legs (tottering of the hind quarters); 2-more pronounced ataxia with dragging of hind legs; 3-further increase of ataxia and more pronounced dragging of hind legs; 4-marked ataxia, animals lose balance during forward locomotion; 5- very marked ataxia with frequent loss of balance during forward locomotion; 6-permanent loss of righting reflexes, but animal still attempts to move forward. Rectal body temperature was measured by an electronic thermometer. Body weight of the animals was recorded once daily before drug injection. Significance of differences in behavior between pre-drug and post-drug data determined in the same group of animals was calculated by the Wilcoxon signed rank test for paired replicates and for body temperature by Student's paired t-test (SigmaStat for Windows, version 1.0). Differences in body temperature were always compared only within the experimental day with the pre-drug time as control to one post-drug time.

[2] = Rectal body temperature; format: in vivo, rat; conditions: for BODY TEMP., day of exper., 13′ post appl.: mean (X)
Method: Female Wistar rats (Harlan-Winkelmann, Borchen, Germany) were obtained at an age of 11-12 weeks (body weight 180-200 g). Female rats were employed because they are known to eliminate drugs less rapidly than do males, which was thought to be an advantage for drug potency studies. Rats were kept separately in plastic cages at controlled temperature (23° C.) and humidity (about 50 %) with a 12-h light cycle beginning at 7 a.m. They received standard diet (Altromin; Lage, F.R.G.), tap water and libitum. All drug injections were done in the afternoon at an ambient temperature of 23-25° C. The regular protocol started by taking the rats out of their individual cage, weighing them and joining them together on a table with six open plastic cages for better behavioral observations. Therefore animals were able to move from one cage to another and either to have social contact or to avoid it. After a short adaptation time of approximately 15 minutes, rectal body temperatures were recorded followed by drug or vehicle application.
as §1, §2

[3] = Drug solubility test; format: physicochemical; conditions: read-out: concentration in drug solubility test
[4] = doses 50, 75, 100, 200 mg/kg i.p.
[5] = 200 mg/kg i.p., listed as valproate

Structure (SMILES): CC#CCC(CCC)C(=O)O (stereo not shown) [2-propyl-4-hexynoic acid, 2-n-propyl-4-hexynoic acid]
- antaxia (1-6) ([1]; 200 mg/kg i.p.): 1.5 score
- hypolocomotion (1-3) ([1]; 200 mg/kg i.p.): 1.4 score
- muscle relaxation (1-3) ([1]; 200 mg/kg i.p.): 1.4 score
- BEHAVIOR (score) antaxia (1-6) ([1]; 200 mg/kg, 13′, mean of 8 rats): 1.50 score
- BEHAVIOR (score) hypolocomotion (1-3) ([1]; 200 mg/kg, 13′, mean of 8 rats): 1.38 score
- BEHAVIOR (score) muscle relaxation (1-3) ([1]; 200 mg/kg, 13′, mean of 8 rats): 1.38 score
- BEHAVIOR (score) red. righting (1-3) ([1]; 200 mg/kg, 13′, mean of 8 rats): 0.75 score
- adverse effects, in words [1, 4]: only observed at the highest dose of 200 mg/kg and were milder than with valproate
- BODY TEMP., day of exper., 13′ post appl. ([2]; 50 mg/kg i.p.): 38.48 °C
- BODY TEMP., day of exper., 13′ post appl. ([2]; 75 mg/kg i.p.): 38.49 °C
- BODY TEMP. (° C.) day of exper. 13′ post appl. ([2]; 200 mg/kg, 13′ post appl., mean of 8 rats, ante appl. 38.68): 37.94 °C
- body-temperatures, in words [2, 4]: maintained within the physiological range
- solubility [3]: 18.5 mg/mL (≈ 120 mM)

Structure (SMILES): CCCC(CCC)C(=O)O [Valproate, valproic acid]
- alterations in behavior, in words ([1]; 100 mg/kg i.p.): No alterations
- further adverse effects, in words ([1]; 200 mg/kg i.p.): wet dog shakes
- antaxia (1-6) ([1]; 200 mg/kg i.p.): 2.75 score
- hypolocomotion (1-3) ([1]; 200 mg/kg i.p.): 1.00 score
- muscle relaxation (1-3) ([1]; 200 mg/kg i.p.): 2.00 score
- antaxia (1-6) [1, 5]: 2.8 score
- hypolocomotion (1-3) [1, 5]: 1.0 score
- muscle relaxation (1-3) [1, 5]: 2.0 score
- BODY TEMP., day of exper., 13′ post appl. ([2]; 50 mg/kg i.p.): 38.82 °C
- BODY TEMP., day of exper., 13′ post appl. ([2]; 75 mg/kg i.p.): 38.55 °C
- alterations in body-temperature, in words ([2]; 100 mg/kg i.p.): No alterations
- BODY TEMP., day of exper., 13′ post appl. ([2]; 100 mg/kg i.p.): 38.97 °C
- BODY TEMP., day of exper., 13′ post appl. ([2]; 200 mg/kg i.p.): 39.18 °C
- BODY TEMP., day of exper., 13′ post appl. [2, 5]: 39.2 °C
- solubility [3]: 20 mg/mL (≈ 139 mM)
